The values below come from US12692241B2, “Substituted triazine compound” (Nico Therapeutics, Inc., priority 2021, dated 2026).

Where a name gives a salt, the structure may show the parent alone.

In one assay the test system is IL-1β production in THP-1 cells (LPS and ATP; NLRP3 inflammasome activation). The experiment in a line: THP-1 IL-1β production inhibitory test. To be noted: Homo sapiens, THP-1, 2 h, PMA-differentiated THP-1 cells, LPS 50 ng/mL and ATP 5 mM, 2 hours, ELISA; read-out: IC50 (nM), IL-1β production. The class given is cell-based, human. How it is done:
THP-1 IL-1β Production Inhibitory Test
To THP-1 cells, 50 ng/mL PMA (phorbol myristate acetate, SIGMA, P1585) was added at 37° C. and then the cells were cultured for 2 days. […] The cells were cultured at 37° C. for 15 minutes. LPS (lipopolysaccharide, SIMGA, L2880) and ATP (adenosine triphosphate, SIGMA, A2383) were added such that the final concentrations of them became 50 ng/mL and 5 mM, respectively. The cells were cultured at 37° C. for 2 hours. The supernatant was collected and the concentration of IL-1β was measured by ELISA (DuoSet ELISA human IL-1β, R&D Systems, DY201). The concentration of IL-1β was plotted against the logarithm of the concentration of the test compound, and the IC50 value was calculated by sigmoidal Emax model nonlinear regression analysis.
Turning to `Cc1nc(N[C@@H]2CCOC[C@@]2(C)O)nnc1-c1ccc(C(F)(F)F)cc1O` [Example 80], the IC50 was found to be 12 nM. Still for that read-out and setting: the figure for `Cc1ccc(-c2nnc(N[C@@H]3CCC[C@H](O)C3)nc2C)c(O)c1` [Example 81] is 42 nM. Consider `Cc1nc(N[C@@H]2CCC[C@H](O)C2)nnc1-c1ccc(Cl)cc1O` [Example 82], for which the IC50 was 30 nM. On the same count and under the same terms, the figure for `Cc1nc(N[C@@H]2CCC[C@H](O)C2)nnc1-c1ccc(C2CC2)cc1O` [Example 83] is 32 nM. With `Cc1nc(N[C@@H]2CCC[C@H](O)C2)nnc1-c1ccc(OC(F)(F)F)cc1O` [Example 84], the IC50 was determined as 38 nM. The same measure, in the same setting: next, `Cc1nc(NCC(C)(C)O)nnc1-c1ccc(C(F)(F)F)cc1O` [Example 85]: 57 nM.

For the molecule `CC(=O)NCCCCNc1nnc(-c2ccc(C(F)(F)F)cc2O)c(C)n1` [Example 86], the IC50 was determined as 12 nM. On to `Cc1nc(NCC(F)F)nnc1-c1ccc(C(F)(F)F)cc1O` [Example 87], for which the IC50 was 130 nM. The same measure, in the same setting: next, `Cc1nc(Nc2cnn(CCO)c2)nnc1-c1ccc(C(F)(F)F)cc1O` [Example 89]: 230 nM; `Cc1nc(Nc2ccn(CCO)n2)nnc1-c1ccc(C(F)(F)F)cc1O` [Example 90]: 53 nM. On the same count and under the same terms, next, `Cc1nc(NCC2CC2)nnc1-c1ccc(C(F)(F)F)cc1O` [Example 91]: 52 nM; `Cc1nc(NCc2cccnc2)nnc1-c1ccc(C(F)(F)F)cc1O` [Example 92]: 200 nM; `Cc1nc(Nc2cnn(C)c2)nnc1-c1ccc(C(F)(F)F)cc1O` [Example 93]: 130 nM. Consider `Cc1nc(NCc2cc[nH]n2)nnc1-c1ccc(C(F)(F)F)cc1O` [Example 94], for which the IC50 stood at 70 nM.

Regarding `Cc1nc(NCCN2CCOCC2)nnc1-c1ccc(C(F)(F)F)cc1O` [Example 95], the IC50 amounted to 410 nM. Turning to `Cc1nc(NCC2CCCCO2)nnc1-c1ccc(C(F)(F)F)cc1O` (stereo not shown) [Example 96], the IC50 stood at 81 nM. Consider `Cc1nc(Nc2ccn(C)n2)nnc1-c1ccc(C(F)(F)F)cc1O` [Example 97], for which the IC50 amounted to 150 nM. As to `Oc1cc(C(F)(F)F)ccc1-c1nnc(N[C@@H]2CCCC[C@H]2O)nc1-c1ccccc1` [Example 98], the 50% inhibitory concentration (IC50) worked out at 280 nM. `Cc1nc(N[C@H]2C[C@H](CO)C2)nnc1-c1ccc(C(F)(F)F)cc1O` [Example 99]: the IC50 is 9.4 nM. For `Cc1nc(N[C@H]2C[C@@H](CO)C2)nnc1-c1ccc(C(F)(F)F)cc1O` [Example 100], the IC50 was determined as 6.4 nM. `Cc1nc(NCCC#N)nnc1-c1ccc(C(F)(F)F)cc1O` [Example 101]: the IC50 worked out at 130 nM. For the molecule `Cc1nc(N[C@@H]2CC[C@H](C#N)C2)nnc1-c1ccc(C(F)(F)F)cc1O` [Example 102], the IC50 stood at 11 nM. For `Cc1nc(N[C@@H]2CC[C@@H](C#N)C2)nnc1-c1ccc(C(F)(F)F)cc1O` [Example 103], the IC50 was determined as 30 nM.

`CC(=O)NCCC1(CNc2nnc(-c3ccc(C(F)(F)F)cc3O)c(C)n2)CCC1` [Example 104]: the IC50 stood at 91 nM.

For the molecule `CC(=O)NC[C@H]1C[C@@H](Nc2nnc(-c3ccc(C(F)(F)F)cc3O)c(C)n2)C1` [Example 105], the IC50 was 36 nM. The same measure, in the same setting: next, `CC(=O)NC[C@H]1C[C@H](Nc2nnc(-c3ccc(C(F)(F)F)cc3O)c(C)n2)C1` [Example 106]: 26 nM; `Cc1nc(Nc2ccn(C[C@@H](C)O)n2)nnc1-c1ccc(C(F)(F)F)cc1O` [Example 107]: 25 nM. The same measure, in the same setting: next, `Oc1cc(C(F)(F)F)ccc1-c1nnc(N[C@@H]2CCCC[C@H]2O)nc1C1CC1` [Example 109]: 17 nM; `Oc1cc(C(F)(F)F)ccc1-c1nnc(N[C@@H]2CCC[C@H]2O)nc1C1CC1` [Example 110]: 15 nM; `Oc1cc(C(F)(F)F)ccc1-c1nnc(N[C@@H]2CCOC[C@H]2O)nc1C1CC1` [Example 111]: 12 nM.

Take `Oc1cc(OC(F)(F)F)ccc1-c1nnc(N[C@@H]2CCOC[C@H]2O)nc1C1CC1` [Example 112]: the IC50 stood at 18 nM. As for `Oc1cc(Cl)ccc1-c1nnc(N[C@@H]2CCOC[C@H]2O)nc1C1CC1` [Example 113], the IC50 stood at 37 nM. With `Cc1ccc(-c2nnc(N[C@@H]3CCOC[C@H]3O)nc2C2CC2)c(O)c1` [Example 114], the IC50 amounted to 33 nM. In the case of `Oc1cc(Cl)ccc1-c1nnc(N[C@@H]2CCCC[C@H]2O)nc1C1CC1` [Example 115], the IC50 came to 8.5 nM. Same read-out and setting: the figure for `Oc1cc(OC(F)(F)F)ccc1-c1nnc(N[C@@H]2CCCC[C@H]2O)nc1C1CC1` [Example 116] is 23 nM; for `Cc1ccc(-c2nnc(N[C@@H]3CCCC[C@H]3O)nc2C2CC2)c(O)c1` [Example 117] it is 19 nM. As for `Oc1cc(C(F)(F)F)ccc1-c1nnc(N[C@@H]2CCCC[C@H]2O)nc1C(F)F` [Example 118], the IC50 was 47 nM. In the case of `Cc1ccc(-c2nnc(N[C@H]3C[C@@](C)(O)C3)nc2C2CC2)c(O)c1` [Example 119], the IC50 was 42 nM.

For the molecule `C[C@]1(O)C[C@@H](Nc2nnc(-c3ccc(OC(F)(F)F)cc3O)c(C3CC3)n2)C1` [Example 120], the IC50 was 83 nM. Still for that read-out and setting: the figure for `C[C@]1(O)C[C@@H](Nc2nnc(-c3ccc(Cl)cc3O)c(C3CC3)n2)C1` [Example 121] is 43 nM; for `C[C@@]1(O)CCCC[C@H]1Nc1nnc(-c2ccc(C(F)(F)F)cc2O)c(C2CC2)n1` [Example 122] it is 15 nM; for `C[C@@]1(O)CCCC[C@H]1Nc1nnc(-c2ccc(Cl)cc2O)c(C2CC2)n1` [Example 123] it is 54 nM. Same read-out and setting: the figure for `C[C@@]1(O)CCCC[C@H]1Nc1nnc(-c2ccc(OC(F)(F)F)cc2O)c(C2CC2)n1` [Example 124] is 37 nM; for `O=C1NCC[C@@H]1Nc1nnc(-c2ccc(Cl)cc2O)c(C2CC2)n1` [Example 125] it is 33 nM; for `O=C1NCC[C@@H]1Nc1nnc(-c2ccc(OC(F)(F)F)cc2O)c(C2CC2)n1` [Example 126] it is 20 nM.

In the case of `O=C1NCC[C@@H]1Nc1nnc(-c2ccc(C(F)(F)F)cc2O)c(C2CC2)n1` [Example 127], the 50% inhibitory concentration (IC50) worked out at 10 nM.

With `CC(C)c1nc(N[C@@H]2CCCC[C@H]2O)nnc1-c1ccc(C(F)(F)F)cc1O` [Example 128], the IC50 was 7.9 nM. `CC(C)c1nc(NC[C@@H](C)O)nnc1-c1ccc(C(F)(F)F)cc1O` [Example 129]: the IC50 came to 55 nM.

Regarding `C[C@@H](O)CNc1nnc(-c2ccc(C(F)(F)F)cc2O)c(C(F)(F)F)n1` [Example 130], the IC50 was 260 nM. With `Cc1nc(N[C@@H]2CCNC2)nnc1-c1ccc(C(F)(F)F)cc1O` [Example 133], the IC50 worked out at 95 nM.

For `Cc1nc(NC[C@@H]2CCCN2)nnc1-c1ccc(C(F)(F)F)cc1O` [Example 134], the IC50 was 38 nM. Regarding `Cc1nc(NC[C@@H]2CCCNC2)nnc1-c1ccc(C(F)(F)F)cc1O` [Example 135], the IC50 was 450 nM. On to `Cc1nc(NC[C@H](C)CCN)nnc1-c1ccc(C(F)(F)F)cc1O` [Example 136], for which the half-maximal inhibitory concentration (IC50) worked out at 61 nM.

For `Cc1nc(N[C@H]2CCCNC2)nnc1-c1ccc(C(F)(F)F)cc1O` [Example 137], the IC50 amounted to 1500 nM. Still for that read-out and setting: the figure for `Cc1nc(N[C@@H]2CCCNC2)nnc1-c1ccc(C(F)(F)F)cc1O` [Example 138] is 5.6 nM; for `Cc1nc(NCCC2(CN)CCC2)nnc1-c1ccc(C(F)(F)F)cc1O` [Example 139] it is 690 nM. On the same count and under the same terms, next, `Cc1n[nH]cc1Nc1nnc(-c2ccc(C(F)(F)F)cc2O)c(C)n1` [Example 140]: 160 nM; `Cc1nc(NC[C@H]2COCCN2)nnc1-c1ccc(C(F)(F)F)cc1O` [Example 142]: 340 nM.

As to `Cc1nc(NC[C@H]2C[C@H](N)C2)nnc1-c1ccc(C(F)(F)F)cc1O` [Example 143], the IC50 was 220 nM. As for `Cc1nc(NC[C@H]2C[C@@H](N)C2)nnc1-c1ccc(C(F)(F)F)cc1O` [Example 144], the IC50 came to 160 nM. As to `Cc1nc(N[C@@H]2CCCC[C@H]2N)nnc1-c1ccc(OC(F)(F)F)cc1O` [Example 145], the IC50 turned out to be 39 nM. On the same count and under the same terms, next, `Cc1nc(N[C@@H]2CCCC[C@H]2N)nnc1-c1ccc(Cl)cc1O` [Example 146]: 12 nM. As for `Cc1ccc(-c2nnc(N[C@@H]3CCCC[C@H]3N)nc2C)c(O)c1` [Example 147], the IC50 was determined as 28 nM. The same measure, in the same setting: next, `Cc1nc(Nc2cn[nH]c2)nnc1-c1ccc(C(F)(F)F)cc1O` [Example 149, 2-{5-methyl-3-[(1H-pyrazol-4-yl)amino]-1,2,4-triazin-6-yl}-5-(trifluoromethyl)phenol]: 23 nM; `Cc1nc(Nc2cc[nH]n2)nnc1-c1ccc(C(F)(F)F)cc1O` [Example 150]: 6.8 nM. Still for that read-out and setting: the figure for `CC(=O)N1CCC[C@H]1CNc1nnc(-c2ccc(C(F)(F)F)cc2O)c(C)n1` [Example 151, 1-((2S)-2-[({6-[2-hydroxy-4-(trifluoromethyl)phenyl]-5-methyl-1,2,4-triazin-3-yl}amino)methyl]pyrrolidin-1-yl)ethan-1-one] is 35 nM.

Still in this assay, the particulars now being: Homo sapiens, THP-1, 2 h, read-out: IC50 (nM), IL-1β production.
As to `Cc1nc(NC[C@@H](C)N)nnc1-c1ccc(C(F)(F)F)cc1O` [Example 148, 2-(3-{[(2R)-2-aminopropyl]amino}-5-methyl-1,2,4-triazin-6-yl)-5-(trifluoromethyl)phenol monohydrochloride], the IC50 is 150 nM.
